Assay results: ChEMBL document CHEMBL5512659, “Structure optimizing of flavonoids against both MRSA and VRE” (Eur J Med Chem, 2024)
≈ marks a conversion by molar mass, not a printed value.

Key:
Format in all cases: functional
Staphylococcus aureus [1] = assay: Antibacterial activity against methicillin resistant Staphylococcus aureus clinical isolate 003
Enterococcus faecalis [2] = assay: Antibacterial activity against multidrug resistant Enterococcus faecalis ATCC 51299
Staphylococcus aureus [3] = assay: Antibacterial activity against methicillin resistant Staphylococcus aureus clinical isolate 031
Staphylococcus aureus [4] = assay: Antibacterial activity against methicillin resistant Staphylococcus aureus clinical isolate 011
Staphylococcus aureus [5] = assay: Antibacterial activity against Staphylococcus aureus clinical isolate 29
Staphylococcus aureus [6] = assay: Antibacterial activity against Staphylococcus aureus clinical isolate 31
Enterococcus faecalis [7] = assay: Antibacterial activity against Enterococcus faecalis clinical isolate 7
Enterococcus faecalis [8] = assay: Antibacterial activity against Enterococcus faecalis clinical isolate 13

SMILES | MIC (Staphylococcus aureus [1]) [µg/mL] | MIC (Enterococcus faecalis [2]) [µg/mL] | also measured
COc1cc(O)c2c(=O)c(CCC/C=C(\C)CCC=C(C)C)c(-c3ccc(O)cc3O)oc2c1 | 16 (≈ 34.4 µM) | 32 (≈ 68.9 µM) | –
CCCCCCCCCCCCCCCCc1c(-c2ccc(O)cc2O)oc2cc(O)cc(O)c2c1=O | > 64 | > 64 | –
CCCCCCc1c(-c2ccc(OCCCCN3CCCC(C)C3)cc2OCCCCN2CCCC(C)C2)oc2cc(OC)cc(O)c2c1=O (stereo not given) | 1 (≈ 1.45 µM) | 2 (≈ 2.89 µM) | MIC (Staphylococcus aureus [3]): 2 µg/mL (≈ 2.89 µM); MIC (Staphylococcus aureus [4]): 2 µg/mL (≈ 2.89 µM); MIC (Staphylococcus aureus [5]): 2 µg/mL (≈ 2.89 µM); MIC (Staphylococcus aureus [6]): 2 µg/mL (≈ 2.89 µM); MIC (Enterococcus faecalis [7]): 2 µg/mL (≈ 2.89 µM); MIC (Enterococcus faecalis [8]): 2 µg/mL (≈ 2.89 µM)
CCCCCCc1c(-c2ccc(OCCCCNCCCCCCCCN)cc2OCCCCNCCCCCCCCN)oc2cc(OC)cc(O)c2c1=O | 0.5 (≈ 0.64 µM) | 1 (≈ 1.28 µM) | MIC (Staphylococcus aureus [3]): 1 µg/mL (≈ 1.28 µM); MIC (Staphylococcus aureus [4]): 1 µg/mL (≈ 1.28 µM); MIC (Staphylococcus aureus [5]): 1 µg/mL (≈ 1.28 µM); MIC (Staphylococcus aureus [6]): 0.5 µg/mL (≈ 0.64 µM); MIC (Enterococcus faecalis [7]): 1 µg/mL (≈ 1.28 µM); MIC (Enterococcus faecalis [8]): 1 µg/mL (≈ 1.28 µM)
CCCCCCc1c(-c2ccc(OCCCCN3CCCCC3)cc2OCCCCN2CCCCC2)oc2cc(OC)cc(O)c2c1=O | 2 (≈ 3.02 µM) | 2 (≈ 3.02 µM) | MIC (Staphylococcus aureus [3]): 2 µg/mL (≈ 3.02 µM); MIC (Staphylococcus aureus [4]): 1 µg/mL (≈ 1.51 µM); MIC (Staphylococcus aureus [5]): 2 µg/mL (≈ 3.02 µM); MIC (Staphylococcus aureus [6]): 1 µg/mL (≈ 1.51 µM); MIC (Enterococcus faecalis [7]): 2 µg/mL (≈ 3.02 µM); MIC (Enterococcus faecalis [8]): 1 µg/mL (≈ 1.51 µM)
CCc1c(-c2ccc(O)cc2O)oc2cc(O)cc(O)c2c1=O | > 64 | > 64 | –
CCCCCCc1c(-c2ccc(O)cc2O)oc2cc(O)cc(O)c2c1=O | 8 (≈ 21.6 µM) | 16 (≈ 43.2 µM) | –
CCCCCCCCCCc1c(-c2ccc(O)cc2O)oc2cc(OC)cc(O)c2c1=O | 16 (≈ 36.3 µM) | 16 (≈ 36.3 µM) | –
CCCCCCCCc1c(-c2ccc(O)cc2O)oc2cc(O)cc(O)c2c1=O | 16 (≈ 40.2 µM) | 16 (≈ 40.2 µM) | –
CC(C)=CCC/C(C)=C/CCCc1c(-c2ccc(O)cc2O)oc2cc(O)cc(O)c2c1=O | 32 (≈ 71 µM) | > 64 | –
CCCc1c(-c2ccc(O)cc2O)oc2cc(OC)cc(O)c2c1=O | 32 (≈ 93.5 µM) | 64 (≈ 187 µM) | –
COc1ccc(-c2oc3cc(OC)cc(OC)c3c(=O)c2CCC=C(C)C)c(OC)c1 | > 64 | > 64 | –
O=c1c(CCCCc2ccccc2)c(-c2ccc(O)cc2O)oc2cc(O)cc(O)c12 | 16 (≈ 38.2 µM) | 32 (≈ 76.5 µM) | –
CCCCCCCCCCc1c(-c2ccc(O)cc2O)oc2cc(O)cc(O)c2c1=O | 16 (≈ 37.5 µM) | 32 (≈ 75 µM) | –
CCCCCCCCCCCCc1c(-c2ccc(O)cc2O)oc2cc(O)cc(O)c2c1=O | 32 (≈ 70.4 µM) | 64 (≈ 141 µM) | –
COc1cc(O)c2c(=O)c(CCCCc3ccccc3)c(-c3ccc(O)cc3O)oc2c1 | 8 (≈ 18.5 µM) | 16 (≈ 37 µM) | –
COc1cc(O)c2c(=O)c(CCC=C(C)C)c(-c3ccc(O)cc3O)oc2c1 | 16 (≈ 41.8 µM) | 32 (≈ 83.7 µM) | –
CCCCCc1c(-c2ccc(O)cc2O)oc2cc(OC)cc(O)c2c1=O | 8 (≈ 21.6 µM) | 16 (≈ 43.2 µM) | –
COc1ccc(-c2cc(=O)c3c(OC)cc(OC)cc3o2)c(OC)c1 | > 64 | > 64 | –
CCCCCc1c(-c2ccc(OC)cc2OC)oc2cc(OC)cc(OC)c2c1=O | > 64 | > 64 | –
COc1ccc(-c2oc3cc(OC)cc(OC)c3c(=O)c2CCC/C=C(\C)CCC=C(C)C)c(OC)c1 | > 64 | > 64 | –
COc1cc(O)c2c(=O)cc(-c3ccc(O)cc3O)oc2c1 [ARTOCARPETIN] | > 64 | > 64 | –
CCCCCCCCc1c(-c2ccc(O)cc2O)oc2cc(OC)cc(O)c2c1=O | 8 (≈ 19.4 µM) | 16 (≈ 38.8 µM) | –
CCCCc1c(-c2ccc(OC)cc2OC)oc2cc(OC)cc(OC)c2c1=O | > 64 | > 64 | –
CCCCc1c(-c2ccc(O)cc2O)oc2cc(O)cc(O)c2c1=O | 32 (≈ 93.5 µM) | 32 (≈ 93.5 µM) | –
CCCCCCCCc1c(-c2ccc(OC)cc2OC)oc2cc(OC)cc(OC)c2c1=O | > 64 | > 64 | –

SMILES | MIC (Staphylococcus aureus [1]) [µg/mL] | MIC (Enterococcus faecalis [2]) [µg/mL] | also measured
CC(C)=CCc1c(-c2ccc(O)c3c2OC(C)(C)C=C3)oc2cc(O)cc(O)c2c1=O [KUWANON A] | 5 (≈ 11.9 µM) | 10 (≈ 23.8 µM) | –
CCc1c(-c2ccc(O)cc2O)oc2cc(OC)cc(O)c2c1=O | > 64 | 64 (≈ 195 µM) | –
CCCc1c(-c2ccc(OC)cc2OC)oc2cc(OC)cc(OC)c2c1=O | > 64 | > 64 | –
CC(C)=CCc1c(O)ccc(C(=O)[C@@H]2[C@@H](c3ccc(O)cc3O)CC(C)=C[C@H]2c2c(O)cc(O)c3c(=O)c(CC=C(C)C)c(-c4ccc(O)cc4O)oc23)c1O | 2.5 (≈ 3.29 µM) | 5 (≈ 6.57 µM) | –
C=CCc1c(-c2ccc(O)cc2O)oc2cc(O)cc(O)c2c1=O | 64 (≈ 196 µM) | > 64 | –
CCCCCCCCCCCCc1c(-c2ccc(OC)cc2OC)oc2cc(OC)cc(OC)c2c1=O | > 64 | > 64 | –
CC(C)=CCCC1=C[C@@H](c2c(O)cc3oc(-c4ccc(O)cc4O)cc(=O)c3c2O)[C@H](C(=O)c2ccc(O)cc2O)[C@@H](c2ccc(O)cc2O)C1 | 5 (≈ 7.22 µM) | 10 (≈ 14.4 µM) | –
CCCCc1c(-c2ccc(O)cc2O)oc2cc(OC)cc(O)c2c1=O | 16 (≈ 44.9 µM) | 32 (≈ 89.8 µM) | –
CCCc1c(-c2ccc(O)cc2O)oc2cc(O)cc(O)c2c1=O | 64 (≈ 195 µM) | > 64 | –
CCCCCc1c(-c2ccc(O)cc2O)oc2cc(O)cc(O)c2c1=O | 16 (≈ 44.9 µM) | 16 (≈ 44.9 µM) | –
CC(C)=CCc1c(-c2ccc(O)cc2O)oc2c([C@H]3C=C(C)C[C@@H](c4ccc(O)cc4O)[C@@H]3C(=O)c3ccc(O)cc3O)c(O)cc(O)c2c1=O [KUMANON G] | 5 (≈ 7.22 µM) | 5 (≈ 7.22 µM) | –
CC(C)=CCCc1c(-c2ccc(O)cc2O)oc2cc(O)cc(O)c2c1=O | 32 (≈ 86.9 µM) | 32 (≈ 86.9 µM) | –
C=CCc1c(-c2ccc(O)cc2O)oc2cc(OC)cc(O)c2c1=O | 32 (≈ 94 µM) | 64 (≈ 188 µM) | –
O=c1cc(-c2ccc(O)cc2O)oc2cc(O)cc(O)c12 [NORARTOCARPETIN] | > 64 | > 64 | –
CCCCCCCCCCCCc1c(-c2ccc(O)cc2O)oc2cc(OC)cc(O)c2c1=O | 16 (≈ 34.1 µM) | 32 (≈ 68.3 µM) | –
CCc1c(-c2ccc(OC)cc2OC)oc2cc(OC)cc(OC)c2c1=O | > 64 | > 64 | –
CCCCCCc1c(-c2ccc(OC)cc2OC)oc2cc(OC)cc(OC)c2c1=O | > 64 | > 64 | –
COc1ccc(-c2oc3cc(OC)cc(OC)c3c(=O)c2CCCCc2ccccc2)c(OC)c1 | > 64 | > 64 | –
CCCCCCCCCCCCCCCCc1c(-c2ccc(OC)cc2OC)oc2cc(OC)cc(OC)c2c1=O | > 64 | > 64 | –
CC(C)=CCc1c(-c2ccc(O)cc2O)oc2c(CC=C(C)C)c(O)cc(O)c2c1=O [KUWANON C] | 5 (≈ 11.8 µM) | 10 (≈ 23.7 µM) | –
CC(C)=CCc1c(-c2ccc(O)cc2O)oc2c3c(cc(O)c2c1=O)OC(C)(C)C=C3 [MORUSIN] | 5 (≈ 11.9 µM) | 5 (≈ 11.9 µM) | –
CCCCCCCCCCc1c(-c2ccc(OC)cc2OC)oc2cc(OC)cc(OC)c2c1=O | > 64 | > 64 | –
C=CCc1c(-c2ccc(OC)cc2OC)oc2cc(OC)cc(OC)c2c1=O | > 64 | > 64 | –
CCCCCCCCCCCCCCCCc1c(-c2ccc(O)cc2O)oc2cc(OC)cc(O)c2c1=O | 32 (≈ 61 µM) | 64 (≈ 122 µM) | –
CCCCCCc1c(-c2ccc(OCCCCNCc3ccc(Br)cc3)cc2OCCCCNCc2ccc(Br)cc2)oc2cc(OC)cc(O)c2c1=O | 64 (≈ 74 µM) | > 64 | MIC (Staphylococcus aureus [4]): 64 µg/mL (≈ 74 µM); MIC (Staphylococcus aureus [5]): > 64 µg/mL; MIC (Staphylococcus aureus [6]): 64 µg/mL (≈ 74 µM); MIC (Enterococcus faecalis [7]): > 64 µg/mL; MIC (Enterococcus faecalis [8]): > 64 µg/mL
